Data published in patent publication US4539410A, “N-Substituted-2-(1-imidazolyl)indoles” (priority 1983, dated 1985).

Legend:
[1] = molecular target: T1, thromboxane synthetase from lysed human platelets (Homo sapiens, UniProt P24557); assay: in vitro inhibition of thromboxane synthetase (14C-arachidonic acid, TxB2/PGF2 α+β ratio); format: biochemical; details: concentration at which ratio TxB2/PGF2 α+β is reduced to 50% of control; 30 minutes incubation
T1 construct: crude microsomal preparation of thromboxane synthetase from lysed human platelets; from tissue; host or cells: human platelets (lysed), crude microsomal preparation
T1 sequence (P24557 1-533): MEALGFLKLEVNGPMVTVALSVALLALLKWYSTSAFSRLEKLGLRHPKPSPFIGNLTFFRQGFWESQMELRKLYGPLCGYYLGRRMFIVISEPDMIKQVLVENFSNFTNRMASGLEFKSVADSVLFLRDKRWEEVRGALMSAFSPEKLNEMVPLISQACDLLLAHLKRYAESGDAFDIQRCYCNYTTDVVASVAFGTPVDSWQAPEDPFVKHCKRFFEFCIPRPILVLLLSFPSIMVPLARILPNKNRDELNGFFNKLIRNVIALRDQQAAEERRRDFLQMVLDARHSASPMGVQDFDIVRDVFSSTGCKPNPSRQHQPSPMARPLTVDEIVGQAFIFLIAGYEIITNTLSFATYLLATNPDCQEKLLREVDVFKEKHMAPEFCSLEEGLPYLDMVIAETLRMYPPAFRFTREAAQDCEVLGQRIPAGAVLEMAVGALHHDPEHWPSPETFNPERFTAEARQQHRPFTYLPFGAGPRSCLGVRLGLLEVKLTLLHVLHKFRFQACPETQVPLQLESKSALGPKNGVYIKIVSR
Experimental: Res. Comm. 74, 1432 (1977); the testing procedure is as follows:
^14 C-Arachidonic acid is incubated with an enzyme mixture preparation consisting of solubilized and partially purified prostaglandin cyclo-oxygenase from sheep seminal vesicles and a crude microsomal preparation of thromboxane synthetase from lysed human platelets. The test compound (dissolved in buffer, or if necessary, in a small amount of ethanol) is added to the incubation medium. At the end of the incubation period (30 minutes), Prostaglandin E2 (PGE2) is reduced to a mixture of Prostaglandin F2 α and F2 β (PGF2 α+β) by addition of sodium borohydride. The radioactive products and excess substrate are extracted into ethyl acetate; the extract is evaporated to dryness; the residue is dissolved in acetone, spotted on thin-layer plates and chromatographed in the solvent system toluene:acetone:glacial acetic acid (100 volumes:100 volumes:3 volumes). The radioactive zones are located; those corresponding to Thromboxane B2 (T×B2) and PGF2 α+β are transferred to liquid scintillation vials and counted. The ratio of counts for T×B2 /PGF2 α+β is calculated for each concentration of test compound and IC50 values are determined graphically as the concentration of test compound at which the ratio of T×B2 /PGF2 α+β is reduced to 50% of the control value.

[2] = tested on: thromboxane B2 plasma level; assay: in vivo reduction of plasma thromboxane B2 in rats after ionophore A23187; details: oral dose as low as 0.20 mg/kg
Experimental: (§1) The inhibition of the synthesis and the reduction of plasma levels of thromboxane is determined in vivo on administration to rats in the following manner (as adapted from the procedures described by Tai et al. in Anal. Biochem. 87:343, 1978 and by Salmon in Prostaglandins 15:383, 1978):
(§2) Rats are dosed with vehicle or test drug and injected intravenously with inophore A23187 (0.5 mg/kg) two hours later. Blood is collected for analysis 2 minutes after the ionophore injection. A single aliquot of each plasma sample is assayed for thromboxane B2 and another aliquot for 6-keto-PGF1 α, the stable metabolites of thromboxane A2 and prostacyclin (PGI2) respectively, by radioimmunoassay.

[3] = tested on: prostacyclin (PGI2) plasma level; assay: in vivo plasma prostacyclin (6-keto-PGF1 α) in rats after ionophore A23187; details: oral, at 0.20 mg/kg or a higher dose
Experimental: as §1, §2

IC50 [1]: 2.3 nM
SMILES: Cc1c(-n2ccnc2)n(CCCCCC(=O)O)c2ccccc12.Cl [Example 3, 1-(5-carboxypentyl)-2-(1-imidazolyl)-3-methylindole hydrochloride]
decrease of the plasma concentration of thromboxane B2 [2]: over 50% | plasma level of prostacyclin [3]: increase in the plasma level of prostacyclin occurs
